The results in this text go back to paper PMC2481421, “Gene expression response in target organ and whole blood varies as a function of target organ injury phenotype” (Genome Biology, 2008).

Where “and” joins values, the source holds several entries; their conditions need not be identical. Equal entries are not always repeated. Entries after “also recorded” stand apart in the source; their conditions may differ.

The test system of one data set is liver. In words: Liver histopathology (H&E sections of left liver lobe, severity graded) after a single dose.
Data set [1] is described as follows: In-life observations: body weight, gross findings before and at necropsy. In kind it is in vivo, Male Fischer 344/N rats. To be noted: individual animals. The procedure: Doses were determined with pilot experiments. […] Serum was collected for clinical chemistry.
The mark [2] stands for this setting: medium dose, 6 hour, six animals.
The mark [3] stands for this setting: 15 mg/kg, gavage, corn oil, 6 hours.
Setting [4] is: 15 mg/kg, gavage, corn oil, 24 hours, listed as 1, 4-Dichlorobenzene.
Setting [5] is: 15 mg/kg, gavage, corn oil, 48 hours.
[6] abbreviates: 150 mg/kg, gavage, corn oil, 6 hours.
Where [7] appears, read: 150 mg/kg, gavage, corn oil, 24 hours, listed as 1, 4-Dichlorobenzene.
Setting [8] is: 150 mg/kg, gavage, corn oil, 48 hours.
The mark [9] stands for this setting: 1500 mg/kg, gavage, corn oil, 24 hours, listed as 1, 4-Dichlorobenzene.
Setting [10] is: 1500 mg/kg, gavage, corn oil, 48 hours.

Method for liver: The animals were acclimated for 14 days and observed for absence of disease.
Doses were determined with pilot experiments. For each chemical, doses that elicited a sub-toxic ('low'), a moderately toxic ('medium') or a overtly toxic ('high') response 24 hours after treatment were selected. […] For each compound, control animal groups were treated with vehicle alone. All animals were fasted for 12-18 hours prior to exposure. Groups of four to six animals were dosed between 8:30 and 9:30 a.m.; thereafter, feed was provided ad libitum. After 6, 24 or 48 hours of treatment, animals were anesthetized by isoflurane anesthesia. Whole blood was collected via retro-orbital plexus for hematology and gene expression analysis. Serum was collected for clinical chemistry. The animals were euthanized while under anesthesia by cervical dislocation and necropsied within 4 minutes of sacrifice. The left liver lobe was promptly removed and two defined cross sections were placed in 10% neutral buffered formalin for subsequent histopathology.
The cross sections that were fixed by immersion in 10% neutral buffered formalin (see 'In-life studies' section above) were transferred to histology grade alcohol for 18-24 hours after necropsy. Tissues were then processed, embedded in paraffin, sectioned at 5 microns, and stained with hematoxylin and eosin. A pathologist completed the initial microscopic evaluation of each liver sample for a given compound. […] An independent pathology quality assessment review was performed by a second pathologist on the initial histopathological findings.

Consider `c1cc[n+]2c(c1)-c1cccc[n+]1CC2` [Diquat], for which, in the data set with liver (high dose, 48 hour), the “extent of hepatocellular necrosis, amount of inflammatory cell infiltrates and/or indications of hepatocellular repair (mitosis) across animals” value is reported as “variability”. Also, in the data set on liver (setting [2]), the “animals with minimal levels of hepatocellular necrosis” value is “one”, the “animals with no apparent histopathological observations” value is on record as “Three of the six” and the “animals with noted levels of glycogen depletion” value was “two”. Moreover, the “Primary site of livery injury” value in the data set on liver (rat, single administration) is listed as “Mid-zonal to centrilobular”.
Regarding `Clc1ccc(Cl)cc1` [1,4-Dichlorobenzene], the “Clin/Ob Prior to Necropsy” value is “Normal” in data set [1] (setting [3]); “Normal” in data set [1] (15 mg/kg, gavage, corn oil, 24 hours); “Normal” in data set [1] (setting [5]); “Normal” in data set [1] (setting [6]); “Normal” in data set [1] (150 mg/kg, gavage, corn oil, 24 hours); “Normal” in data set [1] (setting [8]). Further, the “Clin/Ob Prior to Necropsy” value in data set [1] (1500 mg/kg, gavage, corn oil, 6 hours) is given as “Normal”; in data set [1] (1500 mg/kg, gavage, corn oil, 24 hours), “Normal”; in data set [1] (setting [10]), “Normal”. In addition, the “Gross Findings” value is on record as “No Gross Findings” in data set [1] (setting [3]); “Liver median lobe with dark area 3x5 mm; also recorded: No Gross Findings” in data set [1] (setting [4]); “No Gross Findings” in data set [1] (setting [5]); “No Gross Findings” in data set [1] (setting [6]); “Liver median lobe mottled; Bladder calculi; also recorded: No Gross Findings” in data set [1] (setting [7]); “No Gross Findings” in data set [1] (setting [8]). In addition, the “Gross Findings” value in data set [1] (1500 mg/kg, gavage, corn oil, 6 hours, listed as 1, 4-Dichlorobenzene) was “Liver left and median lobes mottled; also recorded: No Gross Findings”; in data set [1] (setting [9]), “No Gross Findings; also recorded: Liver median lobe mottled on dorsal side”; in data set [1] (setting [10]), “No Gross Findings”. The “Final Body Wt.” value was 232.30 g and 225.40 g and 254.10 g and 277.50 g in data set [1] (setting [4]); 239.30 g and 240.50 g and 258.30 g and 262.70 g in data set [1] (15 mg/kg, gavage, corn oil, 48 hours, listed as 1, 4-Dichlorobenzene); 243.60 g and 238.40 g and 164.30 g and 262.50 g in data set [1] (setting [7]); 234.10 g and 237.30 g and 264.20 g and 251.10 g in data set [1] (150 mg/kg, gavage, corn oil, 48 hours, listed as 1, 4-Dichlorobenzene); 242.10 g and 248.00 g and 261.40 g and 259.70 g in data set [1] (setting [9]); 237.50 g and 238.20 g and 259.90 g and 253.70 g in data set [1] (1500 mg/kg, gavage, corn oil, 48 hours, listed as 1, 4-Dichlorobenzene).
For `c1cc[n+]2c(c1)-c1cccc[n+]1CC2` [Diquat Dibromide], the “Clin/Ob Prior to Necropsy” value in data set [1] (5 mg/kg, I.P., PBS, 6 hours) is reported as “normal”; in data set [1] (5 mg/kg, I.P., PBS, 24 hours), “normal”; in data set [1] (5 mg/kg, I.P., PBS, 48 hours) it was “normal; also recorded: Piloerection”; in data set [1] (10 mg/kg, I.P., PBS, 6 hours) it was “normal”; in data set [1] (10 mg/kg, I.P., PBS, 24 hours), “normal”; in data set [1] (10 mg/kg, I.P., PBS, 48 hours) it was “normal”. Besides, the “Clin/Ob Prior to Necropsy” value in data set [1] (20 mg/kg, I.P., PBS, 6 hours) is “normal”; in data set [1] (20 mg/kg, I.P., PBS, 24 hours), “normal; also recorded: Piloerection”; in data set [1] (20 mg/kg, I.P., PBS, 48 hours) it was “normal; also recorded: Piloerection”; in data set [1] (25 mg/kg, I.P., PBS, 6 hours), “normal; also recorded: Piloerection; also recorded: Comatose”; in data set [1] (25 mg/kg, I.P., PBS, 24 hours), “Piloerection; also recorded: normal; also recorded: Ungroomed Appearance”; in data set [1] (25 mg/kg, I.P., PBS, 48 hours), “normal; also recorded: Ungroomed Appearance; also recorded: Piloerection”. The “Gross Findings” value in data set [1] (5 mg/kg, I.P., PBS, 6 hours) was “No Gross Findings; also recorded: Liver: median lobe dark area ventral surface 3x5mm; also recorded: Liver: left lobe accentuated centrilobular pattern”; in data set [1] (5 mg/kg, I.P., PBS, 24 hours) it was “No Gross Findings; also recorded: Liver: median lobe HDN; also recorded: Liver: left lobe mottled, median lobe mottled”; in data set [1] (5 mg/kg, I.P., PBS, 48 hours), “No Gross Findings; also recorded: Liver: left lobe mottled, median lobe mottled”; in data set [1] (10 mg/kg, I.P., PBS, 6 hours) it was “Liver: left lobe mottled, median lobe pale patcity area 3x5mm; also recorded: Liver: left lobe dark focus 1x1mm, median lobe mottled; also recorded: No Gross Findings”; in data set [1] (10 mg/kg, I.P., PBS, 24 hours), “No Gross Findings; also recorded: Liver: left lobe mottled, median lobe mottled; also recorded: Liver: median lobe dorsal surface mottled; also recorded: Liver: median lobe HDN”; in data set [1] (10 mg/kg, I.P., PBS, 48 hours), “No Gross Findings; also recorded: Liver: left lobe small, median lobe small; also recorded: Liver: left lobe mottled, median lobe mottled”. Moreover, the “Gross Findings” value was “Liver: left lobe mottled dark edge, median lobe mottled; also recorded: No Gross Findings” in data set [1] (20 mg/kg, I.P., PBS, 6 hours); “Liver: left lobe mottled/pale, median lobe mottled/pale; also recorded: No Gross Findings; also recorded: Liver: median lobe dorsal surface mottled; also recorded: Liver: left lobe mottled/pale/slightly enlarged, median lobe mottled/pale/ slightly enlarged” in data set [1] (20 mg/kg, I.P., PBS, 24 hours); “No Gross Findings; also recorded: Liver: left lobe mottled/pale, median lobe pale; also recorded: Liver: left lobe mottled/pale, median lobe mottled/pale” in data set [1] (20 mg/kg, I.P., PBS, 48 hours); “No Gross Findings; also recorded: Liver: left lobe mottled dark, median lobe mottled dark” in data set [1] (25 mg/kg, I.P., PBS, 6 hours); “No Gross Findings; also recorded: Liver: left lobe pale, one focal tan area on dorsal side 3x3mm, tan focal area on ventral side 7x5mm; median lobe pale and mottled; also recorded: Liver: left lobe dark edge; also recorded: Liver: left lobe mottled/pale/ rough surface minimal, median lobe mottled/pale/ rough surface minimal” in data set [1] (25 mg/kg, I.P., PBS, 24 hours); “Liver: left lobe pale/small, median lobe pale/small; also recorded: Liver: left lobe pale/mottled/ rough surface slight, median lobe pale/mottled/ rough surface slight” in data set [1] (25 mg/kg, I.P., PBS, 48 hours). Also, the “Final Body Wt.” value was 211.10 g and 208.50 g and 245.30 g and 233.00 g and 258.10 g and 250.90 g in data set [1] (5 mg/kg, I.P., PBS, 24 hours); 224.20 g and 218.20 g and 231.10 g and 225.90 g and 257.30 g and 249.20 g in data set [1] (5 mg/kg, I.P., PBS, 48 hours); 206.10 g and 210.20 g and 242.10 g and 224.30 g and 236.70 g and 244.40 g in data set [1] (10 mg/kg, I.P., PBS, 24 hours); 220.20 g and 230.20 g and 218.20 g and 217.30 g and 243.20 g and 249.30 g in data set [1] (10 mg/kg, I.P., PBS, 48 hours); 207.30 g and 222.70 g and 236.30 g and 245.70 g and 242.80 g and 235.30 g in data set [1] (20 mg/kg, I.P., PBS, 24 hours); 227.20 g and 217.30 g and 211.20 g and 231.70 g and 252.00 g and 265.20 g in data set [1] (20 mg/kg, I.P., PBS, 48 hours). The “Final Body Wt.” value was 240.50 g and 211.50 g and 223.20 g and 243.30 g and 234.60 g and 233.90 g in data set [1] (25 mg/kg, I.P., PBS, 24 hours); 205.20 g and 208.20 g and 226.90 g and 212.10 g and 236.10 g and 244.10 g in data set [1] (25 mg/kg, I.P., PBS, 48 hours).
